Here are results for six molecules from patent US20070179085A1, “MODULATION OF RHAMM-CAVEOLIN/LIPID RAFT INTERACTIONS TO AFFECT DEVELOPMENT, RESPONSES TO TISSUE INJURY, ANGIOGENESIS, TUMORIGENESIS, METASTASIS AND GROWTH FACTOR/CYTOKINE RESPONSES” (priority 2005, published 2007).

The test system of test [1] is 70 kDa RHAMM. The test is described as follows: GPI-anchor identification: Triton X-114 phase separation, PI-PLC, surface biotin labeling. The class given is cell-based, rat. The note with it: co-treatment with PDGF-BB and mannosamine 10 mM for six hours. As for the experimental part: Differential solubilization and temperature-induced Triton X-114 phase separation was performed as briefly described with 75-100 μg of membrane protein. Cells were grown to confluency and quiesced for 48 hours at which point cells were harvested for membrane protein. Some samples were incubated with PI-PLC for 1 hour at 37° C. before proceeding with Triton X-114 phase separation. PI-PLC was used at 0.375 U/100 μg membrane protein. In separate experiments Mannosamine-HCl was used at 10 mM during 6 hour PDGF-BB treatment. For radiolabel experiments, cells were grown to confluency and quiesced for 48 hours in inositol-free media and then incubated with 4 μCi/mL of ^3H myo-inositol during 6 hour PDGF-BB treatment. For surface biotinylation experiments, media was removed after treatment and replaced with 1 mg/ml biotin in defined media and incubated for 20 minutes at 37° C.

A further test relates to RHAMM:caveolin. The test can be described thus: Co-immunoprecipitation of RHAMM and caveolin-1 from SMC lysates. The class given is cell-based, rat. The following applies: peptide 24 hours prior to and during 6 hour PDGF-BB treatment. The procedure:
For standard experiment, 100 μg of lysate was used. Samples were pre-cleared with 50 μl of Protein G-agarose for 60 minutes at room temperature while rotating then centrifuged at 13000 g for 5 minutes. The supernatant was transferred to a new tube and incubated with 1 μg of antibody overnight at 4° C. while rotating. The samples were then incubated with 20 μl of Protein G-agarose for 1 hour at 4° C. while rotating. Beads were collected by centrifugation (1 minute at high speed) and then washed three times with lysis buffer (50 mM Tris, pH 8.0/140 mM NaCl/[…]/0.4% Deoxycholate/protease inhibitor cocktail (Boehringer Manheim). The beads were resuspended in at least 40 μl of 2× Novex Sample Buffer and western blot was performed as per NUPAGE protocol (Invitrogen). Primary and secondary antibodies were diluted (R36: 5 μg/ml, Caveolin-1: 0.25 μg/ml) and pre-incubated together over-night before use. For biotin labeling experiments, 6 μl of streptavidin-agarose was added to 25 μg of protein and incubated for 3 hours at 4° C. Beads were collected by centrifugation at 13000 g for 1 minute, washed and resuspended in Novex sample buffer as above.
Therefore, peptides were used to interfere with RHAMM:caveolin to establish direct protein-protein interactions. […]

The subject of the next test is erk. The test can be described thus: Immunoblot for total and phosphorylated-erk in PDGF-BB stimulated SMC. Type of test: cell-based, rat. The following applies: peptide pretreatment 24 hours, then 10-minute PDGF-BB.
Test [2] concerns 70 kDa RHAMM. The test can be described thus: MBCD-mediated release of RHAMM from SMC (caveolar disruption). The class given is cell-based, rat. The following applies: MBCD 30 minutes, absence of PDGF-BB. As for the experimental part: Caveolar disruption was performed as described below. Cells were grown to confluency in 150 mm dishes and quiesced for 48 hr. After 6 hr PDGF treatment, media was removed and replaced with 20 mm methyl-beta-cyclodextrin in TKM buffer (50 mM Tris-HCl, pH7.4, 25 mM KCl, 5 mM MgCl, 1 mM EDTA). Cells were incubated for 20-30 minutes at 37° C., and the cell-free supernatant was collected after centrifugation at 2000 g for 10 minutes.
Since the GPI anchor links to a hydrophobic lipid tail that inserts into the exoplasmic leaflet of the cell membrane, a liquid ordered arrangement is necessary to maintain its integrity. […] Methyl-beta-cyclodextrin (MBCD), a cell surface-specific cholesterol-extracting agent, can be used to disrupt lipid rafts and caveolae to release endogenous GPI-anchored proteins (Ilangumaran, Madore, McCabe). […] Proteins in the cholesterol-rich annulus are sensitive whereas those in the sphingolipid core are resistant to release by MBCD. SMC cultures were treated with MBCD for 30 minutes, and the cell free supernatant was collected. The supernatant was run by volume on SDS-PAGE and immunoblotted for RHAMM and urokinase-plasmingen activator receptor (uPAR), a defined GPI-anchored protein previously shown to be present in lipid domains. Without MBCD, RHAMM was not released into the supernatant in detectable amounts, irrespective of PDGF-BB treatment (FIG. 11a, lane 2 vs 4). […]

The subject of test [3] is rat aortic SMC. The test can be described thus: SMC migration at leading edge of single scratch wounds (timelapse cinemicrography). The class given is cell-based. As for the experimental part: Primary cultures of rat aortic SMC were established as previously described. […]
The medium of confluent SMC cultures was then changed to DMEM defined medium for 48 hours for quiescence. Migration of SMC at the leading edge of single scratch wounds of confluent cultures was determined using timelapse cinemicrography as previously described and summarized below. […] Media HA concentration was determined as described below. […]
SMC plated in DMEM complete medium were allowed to grow to confluence. After overnight quiescence, a single scratch wound was made in the center of the culture plate using a sterile cell scraper and fresh defined medium was added The motility of cells at the leading edge of these wounds was determined using timelapse cinemicrography (Metamorph, Universal Imaging Corporation, West Chester, Pa.) as previously described. Briefly, cells were monitored using a Nikon TE-300 inverted microscope (Nikon Instruments, Inc., Melville, N.Y.) to which a video camera (Hamamatsu CCD, Inc., Hamamatsu City, Japan) was attached. At least 20 cells per high power field were imaged every hour and the mean distance traveled per frame was measured to obtain mean cell velocities.

Test [4] has as its system rat aortic SMC. The test can be described thus: SMC proliferation (MTS assay). The class given is cell-based. The procedure: In order to determine the effect of PDGF-BB on SMC proliferation, 80% confluent and quiescent cultures of SMC were stimulated for 72 hours with varying doses of PDGF-BB (2-50 ng/ml) and cell number was determined using the MTS assay as described in Methods. A bell-shaped dose response curve was obtained with maximum stimulation of SMC proliferation at 10-25 ng/ml (FIG. 7d, *p<0.01 vs. control).
The effect of HA on SMC proliferation and modulation by PDGF-BB was also examined. SMC that were either maintained in serum-free medium or pre-stimulated with 10 ng/ml PDGF-BB for 24 hours were exposed to HA in serum-free medium at concentrations of 0.1-1000 μg/ml for 48 hours. […] As expected, baseline proliferation was increased in SMC cultures following exposure to 10 ng/ml PDGF-BB for 24 hours (FIG. 7e, *p<0.01 vs. non-stimulated cells). […] In order to determine the contribution of RHAMM to SMC proliferation induced by HA, SMC cultures were treated with R36 throughout the pre-stimulation period with PDGF-BB and subsequently during HA stimulation. Non-immune IgG was used as a negative control and a blocking anti-PDGF-BB antibody was used as a positive inhibitory control. Cell number was determined by MTS assay 48 hours after HA stimulation with and without antibody treatments. As noted before, PDGF-BB pretreatment increased baseline proliferation, FIG. 7e*p<0.01 vs. no PDGF), and HA stimulated a further 25% increase in proliferation, FIG. 7e**p<0.05 vs. PDGF, no HA). […] Anti-PDGF-BB antibody blocked 50% of the PDGF-mediated increase in baseline proliferation, FIG. 7e#p<0.01 anti-PDGF vs. normal IgG).

A further test relates to SMC. The note with it: 0.0 μg/ml of HA; previously demonstrated; cited from earlier work.
For test [5], the system named is rat aortic SMC. The test is described as follows: HA content of medium of SMC cultures (ELISA like assay). Type of test: cell-based. The following applies: quiescent SMC treated 24 hours, normalized to total protein. As for the experimental part: The medium of confluent SMC cultures was then changed to DMEM defined medium for 48 hours for quiescence. Migration of SMC at the leading edge of single scratch wounds of confluent cultures was determined using timelapse cinemicrography as previously described and summarized below. To observe the effect of HA on this migratory response to wounding, cultures were stimulated with varying concentrations of HA (0.1-100 μg/ml) and studied for 24 hours. For PDGF-BB stimulated HA synthesis experiments, quiescent SMC were stimulated with varying doses of PDGF-BB (2-100 ng/ml) for 24 hours. Media HA concentration was determined as described below. All experiments described below included 10 replicates and each experiment was repeated at least 3 times.
A modified ELISA assay was utilized for determination of HA concentration.
In order to determine the optimal concentration of PDGF-BB required to simulate HA synthesis in SMC, the HA content of medium from quiescent SMC treated for 24 hours with various concentrations of PDGF-BB was determined using an ELISA like assay for HA. Resulting values were normalized to the total protein content of the cultures. […] We therefore used this concentration of PDGF-BB for all subsequent experiments.

With `N[C@@H]1C(O)O[C@H](CO)[C@@H](O)[C@@H]1O` (stereo partly drawn) [mannosamine], the “presence of RHAMM in pellet phase after Triton X-114 fractionation” value in the test with 70 kDa RHAMM [1] is reported as “completely inhibited”.

Regarding “CAV: caveolin scaffolding domain (aa 82-101) peptide fused to antenapedia sequence (RQIKIWFQNRRMKWKKDGIWKASFTTFTVTKYWFYR)”, the “co-immunoprecipitation of RHAMM and caveolin-1” value in the test on RHAMM:caveolin was “decreased co-immunoprecipitation”. In the test on erk, the “PDGF-BB-induced erk phosphorylation after peptide pretreatment” value is listed as “inhibited”.

With Methyl-beta-cyclodextrin [MBCD], in the test with 70 kDa RHAMM [2], the “release of 70 kDa RHAMM into supernatant by MBCD” value is listed as “released into supernatant”.

For the molecule “RM: peptide of RHAMM caveolin-binding motif (KWRLL YEEL YDKTKPFQ) fused to antenapedia sequence RQIKIWFQNRRMKWKK (YDKTKPFQRQIKIWFQNRRMKWKK)”, the “co-immunoprecipitation of RHAMM and caveolin-1” value in the test with RHAMM:caveolin is reported as “decreased co-immunoprecipitation”. Moreover, the “PDGF-BB-induced erk phosphorylation after peptide pretreatment” value in the test with erk is on record as “inhibited”.

For the molecule hyaluronan [HA], the “effect of exogenous HA on SMC migration after single scratch wounding” value in the test with rat aortic SMC [3] (0.001 μg/ml HA added to wounded cultures) is “further stimulation of SMC that continued up to 18 hours”. The “proliferative response of SMC to HA without PDGF-BB pre-stimulation” value with rat aortic SMC [4] (HA 0.1-1000 μg/ml, 48 hours, serum-free medium) was “no proliferative response”. Moreover, the “HA concentration of maximal proliferative response” value with rat aortic SMC [4] (after pre-stimulation with 10 ng/ml PDGF-BB) stood at 100 µg/mL. The “further increase in SMC proliferation in response to HA” value with rat aortic SMC [4] (after pre-stimulation with 10 ng/ml PDGF-BB for 24 hours, HA 48 hours) is on record as 25%. Also, the “random migration of sub-confluent SMC cultures” value in the test with SMC is given as “increases their random migration”.

B1: PDGF-BB: Platelet-Derived Growth Factor BB dimer, obtained from R & D Systems (protein, UniProt P01127 82-190, looked up)
Platelet-derived growth …: SLGSLTIAEPAMIAECKTRTEVFEISRRLIDRTNANFLVWPPCVEVQRCSGCCNNRNVQCRPTQVQLRPVQVRKIEIVRKKPIFKKATVTLEDHLACKCETVAAARPVT
modifications: homodimer BB
notes: Platelet-Derived Growth Factor BB dimer, obtained from R & D Systems
For the molecule B1, in the test on rat aortic SMC [3] (PDGF-BB 10 ng/ml vs non-stimulated control), the “increase of mean cell velocity of SMC at leading edge of wounds” value is reported as “two-fold”. In addition, in the test on rat aortic SMC [5], the “PDGF-BB dose of maximal HA synthesis” value was 10 ng/mL. In addition, the “baseline SMC proliferation” value with rat aortic SMC [4] (10 ng/ml PDGF-BB for 24 hours) is recorded as “increased”. For the same molecule, the “PDGF-BB dose of maximum stimulation of SMC proliferation” value in the test with rat aortic SMC [4] (72 hours, doses 2-50 ng/ml, bell-shaped curve) fell in the range of 10 to 25 ng/mL.
